Assay results published in patent US4680284A, “Modified phenylalanine peptidylaminodiols” (Abbott Laboratories, priority 1986, dated 1987).

molecular target: T1, human renal renin (Homo sapiens, UniProt P00797); experiment: In vitro inhibition of human renal renin (angiotensin I formation measured by radioimmunoassay); format: biochemical; conditions: human renal renin with human renin substrate (angiotensinogen), 37° C., pH 6.0
T1 construct: human renal renin, free from acid proteolytic activity; from tissue
T1 sequence (P00797 67-406): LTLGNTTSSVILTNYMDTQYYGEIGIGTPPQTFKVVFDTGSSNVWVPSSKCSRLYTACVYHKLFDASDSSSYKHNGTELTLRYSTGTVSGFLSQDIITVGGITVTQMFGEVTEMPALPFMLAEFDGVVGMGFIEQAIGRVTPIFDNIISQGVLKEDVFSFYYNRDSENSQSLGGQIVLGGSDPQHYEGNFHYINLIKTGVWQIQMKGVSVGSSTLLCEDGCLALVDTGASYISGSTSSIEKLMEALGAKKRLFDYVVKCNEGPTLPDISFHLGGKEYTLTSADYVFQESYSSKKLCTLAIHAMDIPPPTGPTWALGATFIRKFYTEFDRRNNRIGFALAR

In order of rising IC50:
1. CCOC(=O)NC1(C(=O)N[C@@H](Cc2c[nH]cn2)C(=O)N[C@@H](CC2CCCCC2)[C@@H](O)[C@@H](O)CC(C)C)CCc2ccccc2C1 (stereo partly drawn) [Example 10, EtOC-(R,S)-ATCA-His Amide of 2(S)-Amino-1-cyclohexyl-3(R),4(S)-dihydroxy-6-methylheptane]  0.005 µM
2. CC(=O)N[C@@](C)(Cc1ccccc1)C(=O)N[C@@H](Cc1c[nH]cn1)C(=O)N[C@@H](CC1CCCCC1)[C@@H](O)[C@@H](O)CC(C)C [Example 19, Acetyl-AMPA-His Amide of 2(S)-Amino-1-cyclohexyl-3(R),4(S)-dihydroxy-6-methylheptane]  0.009 µM
3. CCOC(=O)N1Cc2ccccc2CC1C(=O)N[C@@H](Cc1c[nH]cn1)C(=O)N[C@@H](CC1CCCCC1)[C@@H](O)[C@@H](O)CC(C)C (stereo partly drawn) [Example 13, EtOC-TIC-His Amide of 2(S)-Amino-1-cyclohexyl-3(R),4(S)-dihydroxy-6-methylheptane]  0.01 µM
4. CC(C)C[C@H](O)[C@H](O)[C@H](CC1CCCCC1)NC(=O)[C@H](Cc1c[nH]cn1)NC(=O)[C@@](C)(N)Cc1ccccc1 [Example 17, AMPA-His Amide of 2(S)-Amino-1-cyclohexyl-3(R),4(S)-dihydroxy-6-methylheptane]  0.01 µM
5. CCOC(=O)NC1(C(=O)N[C@@H](Cc2c[nH]cn2)C(=O)N[C@@H](CC2CCCCC2)[C@@H](O)[C@@H](O)CC(C)C)Cc2ccccc2C1 [Example 5, EtOC-AICA-His Amide of 2(S)-Amino-1-cyclohexyl-3(R),4(S)-dihydroxy-6-methylheptane]  0.015 µM
6. CC(C)C[C@H](O)[C@H](O)[C@H](CC1CCCCC1)NC(=O)[C@H](Cc1c[nH]cn1)NC(=O)C(N)(Cc1ccccc1)Cc1ccccc1 [Example 21, ADBA-His Amide of 2(S)-Amino-1-cyclohexyl-3(R),4(S)-dihydroxy-6-methylheptane]  0.025 µM
7. CC(C)C[C@H](O)[C@H](O)[C@H](CC1CCCCC1)NC(=O)[C@H](Cc1c[nH]cn1)NC(=O)C1Cc2ccccc2C(=O)N1 (stereo partly drawn) [Example 15, OTIC-His Amide of 2(S)-Amino-1-cyclohexyl-3(R),4(S)-dihydroxy-6-methylheptane]  0.1 µM
8. CC(C)C[C@H](O)[C@H](O)[C@H](CC1CCCCC1)NC(=O)[C@H](Cc1c[nH]cn1)NC(=O)C1(N)Cc2ccccc2C1 [Example 7, AICA-His Amide of 2(S)-Amino-1-cyclohexyl-3(R),4(S)-dihydroxy-6-methylheptane]  0.3 µM
